According to patent US20160297830A1, “NOVEL COMPOUNDS USEFUL FOR THE TREATMENT OF BACTERIAL INFECTIOUS DISEASES” (GALAPAGOS NV, priority 2013, published 2016):
Values after ≈ are worked out from the molar mass of the structure shown. Like-named read-outs stand apart in the source and are kept apart here.

Key:
[1] = system: S. aureus Sa1 ATCC 13709; experiment: microbe, parasite or virus in culture; format: cell-based; conditions: Staphylococcus aureus
[2] = system: S. aureus Sa26 ATCC 25923; experiment: Antibacterial activity assay (MIC), S. aureus Sa26; format: cell-based; conditions: Staphylococcus aureus
[3] = system: S. aureus Sa4 NCTC 6571; experiment: Antibacterial activity assay (MIC), S. aureus Sa4; format: cell-based; conditions: Staphylococcus aureus
[4] = system: S. aureus Sa2 clinical strain NCIMB 41953, MRSA; experiment: microbe, parasite or virus in culture; format: cell-based; conditions: Staphylococcus aureus, read-out: MIC Sa2
[5] = system: H. influenza Hi3 ATCC 31517; experiment: organism not typed; format: cell-based; conditions: read-out: MIC Hi3
[6] = system: H. influenza Hi10 clinical strain; experiment: organism not typed; format: cell-based; conditions: read-out: MIC Hi10
[7] = system: H. influenza Hi47 clinical strain, Ampicillin Resistant; experiment: organism not typed; format: cell-based; conditions: read-out: MIC Hi47
[8] = system: H. influenza Hi106 ATCC 51907; experiment: organism not typed; format: cell-based; conditions: read-out: MIC Hi106
[9] = system: E. coli Ec1 ATCC 25922; experiment: Antibacterial activity assay (MIC), E. coli Ec1; format: cell-based; conditions: Escherichia coli
[10] = system: E. coli Ec50 efflux pump KO; experiment: microbe, parasite or virus in culture; format: cell-based; conditions: Escherichia coli, read-out: MIC Ec50 efflux pump KO
[11] = system: E. coli Ec113 efflux pump KO; experiment: microbe, parasite or virus in culture; format: cell-based; conditions: Escherichia coli, read-out: MIC Ec113 efflux pump KO
[12] = target: DNA Polymerase IIIα (DnaE) from Staphylococcus aureus (Staphylococcus aureus, UniProt Q6GG04); experiment: biochemical
Chain of DNA Polymerase IIIα (DnaE) from Staphylococcus aureus (Q6GG04 1-1022): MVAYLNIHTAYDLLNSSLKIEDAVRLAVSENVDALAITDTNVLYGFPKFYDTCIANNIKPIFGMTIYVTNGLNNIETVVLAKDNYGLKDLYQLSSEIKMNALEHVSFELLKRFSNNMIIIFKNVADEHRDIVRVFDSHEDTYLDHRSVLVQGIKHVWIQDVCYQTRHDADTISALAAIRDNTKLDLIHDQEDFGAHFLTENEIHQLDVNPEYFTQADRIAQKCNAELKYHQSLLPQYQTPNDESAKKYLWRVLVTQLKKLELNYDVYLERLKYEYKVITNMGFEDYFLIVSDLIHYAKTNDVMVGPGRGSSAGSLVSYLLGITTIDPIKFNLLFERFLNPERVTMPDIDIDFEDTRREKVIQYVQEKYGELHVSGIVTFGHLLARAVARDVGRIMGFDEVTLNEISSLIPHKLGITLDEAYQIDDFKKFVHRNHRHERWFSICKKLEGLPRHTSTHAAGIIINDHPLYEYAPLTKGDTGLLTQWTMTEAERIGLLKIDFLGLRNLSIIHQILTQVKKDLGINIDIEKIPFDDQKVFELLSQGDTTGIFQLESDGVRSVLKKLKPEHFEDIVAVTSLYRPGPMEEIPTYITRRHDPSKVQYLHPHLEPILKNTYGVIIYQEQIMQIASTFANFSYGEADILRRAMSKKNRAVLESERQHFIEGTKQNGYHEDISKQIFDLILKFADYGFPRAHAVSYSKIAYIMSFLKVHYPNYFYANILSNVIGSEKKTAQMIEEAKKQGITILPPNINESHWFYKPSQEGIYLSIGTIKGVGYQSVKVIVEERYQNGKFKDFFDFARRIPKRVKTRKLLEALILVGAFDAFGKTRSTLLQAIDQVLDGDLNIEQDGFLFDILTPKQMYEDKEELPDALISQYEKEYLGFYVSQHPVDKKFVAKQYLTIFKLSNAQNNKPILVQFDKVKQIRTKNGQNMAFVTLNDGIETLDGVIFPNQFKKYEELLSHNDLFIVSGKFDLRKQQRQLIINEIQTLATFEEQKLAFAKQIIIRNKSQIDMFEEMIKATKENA

[13] = target: DNA III Polymerase E (Escherichia coli, UniProt P10443); experiment: In vitro activity against DNA III Polymerase E, E. coli; format: biochemical; conditions: DNA polymerase III, E. coli; read-out: IC50 semiquantitative scoring, E. coli
Chain of DNA III Polymerase E (P10443 whole entry): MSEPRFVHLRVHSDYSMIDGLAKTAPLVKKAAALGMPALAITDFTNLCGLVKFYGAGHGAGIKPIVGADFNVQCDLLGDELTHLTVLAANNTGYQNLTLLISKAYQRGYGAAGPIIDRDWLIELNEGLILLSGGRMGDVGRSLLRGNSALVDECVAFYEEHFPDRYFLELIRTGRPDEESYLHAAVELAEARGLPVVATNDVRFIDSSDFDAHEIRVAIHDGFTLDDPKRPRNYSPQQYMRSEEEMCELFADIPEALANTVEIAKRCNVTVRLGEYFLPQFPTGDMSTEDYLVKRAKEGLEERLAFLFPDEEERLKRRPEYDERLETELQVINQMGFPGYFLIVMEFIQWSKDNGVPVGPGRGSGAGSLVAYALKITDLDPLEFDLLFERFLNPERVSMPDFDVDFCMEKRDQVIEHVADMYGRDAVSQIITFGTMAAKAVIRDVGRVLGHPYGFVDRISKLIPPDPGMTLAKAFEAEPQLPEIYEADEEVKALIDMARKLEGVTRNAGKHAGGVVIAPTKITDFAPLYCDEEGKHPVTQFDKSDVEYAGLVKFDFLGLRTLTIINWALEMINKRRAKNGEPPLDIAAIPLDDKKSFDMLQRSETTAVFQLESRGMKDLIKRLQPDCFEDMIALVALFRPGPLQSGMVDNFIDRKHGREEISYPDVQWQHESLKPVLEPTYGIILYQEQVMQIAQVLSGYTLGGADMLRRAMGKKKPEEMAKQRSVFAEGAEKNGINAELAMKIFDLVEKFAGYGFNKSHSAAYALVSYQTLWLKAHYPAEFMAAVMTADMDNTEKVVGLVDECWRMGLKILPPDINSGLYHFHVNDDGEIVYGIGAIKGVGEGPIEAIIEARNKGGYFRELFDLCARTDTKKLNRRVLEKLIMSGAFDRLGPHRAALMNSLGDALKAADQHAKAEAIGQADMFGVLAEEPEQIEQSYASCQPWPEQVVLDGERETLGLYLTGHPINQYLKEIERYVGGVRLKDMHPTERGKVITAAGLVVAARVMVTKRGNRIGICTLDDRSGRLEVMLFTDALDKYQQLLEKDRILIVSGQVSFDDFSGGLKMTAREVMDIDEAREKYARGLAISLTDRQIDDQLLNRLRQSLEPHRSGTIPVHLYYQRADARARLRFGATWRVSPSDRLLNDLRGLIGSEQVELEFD
Procedure: A radioactive filterplate assay was used to assess inhibitory activity of compounds on DNA Polymerase IIIα. Five μL of a dilution series of compound, starting from 100 μM highest concentration, 1/5 dilution, was added to the wells of a 96 well plate. Recombinant enzyme was diluted to 0.47 μg/mL in a buffer containing 20 mM Tris pH7.5, 8 mM DTT, 10 mM MgOAc, 0.05% CHAPS and 10 μL thereof was added to the compound dilutions. The reaction was started with the addition of 10 μL substrate in the same buffer, containing activated calf thymus DNA (Sigma, D4522), dATP, dGTP, dCTP, dTTP (Invitrogen) and [α-33P]-dTTP (Perkin Elmer, NEG605H001) at a concentration of 62.5 μg/mL, 50 nM and 7.5 μCi/mL respectively. The mixture was incubated at 30° C. for 120 minutes and terminated by addition of phosphoric acid. Samples were transferred to filter plates and incorporated radioactivity was measured by the Topcount. Data were converted to percent inhibition with respect to positive and negative controls. IC50 values were calculated using Graph Prism™ software.

[14] = ATCC25923, read-out: MIC Sa26 + 10% SH
[15] = ATCC25923, read-out: MIC Sa26 + 50% SH
[16] = ATCC13709, S. aureus Sa1 ATCC 13709, sensitive strain, Mueller-Hinton Broth, 37° C., read-out: MIC Sa1
[17] = ATCC25923, read-out: MIC Sa26 + 10% SH, S. aureus Sa26 + 10% SH
[18] = ATCC25923, read-out: MIC Sa26 + 50% SH, S. aureus Sa26 + 50% SH
[19] = ATCC25923, S. aureus Sa26 ATCC 25923, sensitive strain, Mueller-Hinton Broth, 37° C., read-out: MIC Sa26
[20] = NCTC6571, S. aureus Sa4 NCTC 6571, sensitive strain, read-out: MIC Sa4
[21] = ATCC25922, E. coli Ec1 ATCC 25922, sensitive strain, read-out: MIC Ec1

With `COC[C@@H]1[C@@H](O)[C@@H]2[C@H]3C=C[C@@H]4C[C@H](O)C(=O)O[C@H]([C@H](O)COC)[C@H](C)/C=C(\C)[C@@]24O[C@H]3[C@@H]1OC(=O)c1ccc[nH]1` [Nargenicin B1, reference compound] the MIC ([1]; ATCC13709, read-out: MIC Sa1) was 1 µg/mL (≈ 1.78 µM), the MIC ([2]; ATCC25923, read-out: MIC Sa26) was 2 µg/mL (≈ 3.56 µM) and the MIC [2, 14] was 2 µg/mL. The MIC [2, 15] was 1 µg/mL, the MIC ([3]; NCTC6571, read-out: MIC Sa4) was 0.5 µg/mL (≈ 0.89 µM) and the MIC [4] was 0.5 µg/mL (≈ 0.89 µM). The MIC [5] was greater than 64 µg/mL, the MIC [6] was greater than 64 µg/mL and the MIC [7] was greater than 64 µg/mL. The MIC [8] was greater than 64 µg/mL, the MIC ([9]; ATCC25922, read-out: MIC Ec1) was greater than 64 µg/mL and the MIC [10] was 16 µg/mL (≈ 28.5 µM). The MIC [11] was 2 µg/mL (≈ 3.56 µM), the IC50 [12] was 1.78 to 1780 nM and the IC50 [13] was greater than 17800 nM.

Compound `COC[C@@H]1[C@@H](O)[C@@H]2[C@H]3C=C[C@@H]4[C@@H](COC)C(=O)O[C@H]([C@H](O)COC)[C@H](C)/C=C(\C)[C@@]24O[C@H]3[C@@H]1OC(=O)c1ccoc1` [Compound 5, 8-O-Furane-3′-carbonylbranimycin] has an MIC [1, 16] of 2 µg/mL (≈ 3.47 µM), an MIC [2, 17] of 2 µg/mL and an MIC [2, 18] of 4 µg/mL. It also gave an MIC [2, 19] of 4 µg/mL (≈ 6.94 µM), an MIC [3, 20] of 2 µg/mL (≈ 3.47 µM) and an MIC [4] of 2 µg/mL (≈ 3.47 µM). For the same compound, the MIC [5] was greater than 64 µg/mL, the MIC [6] was greater than 64 µg/mL and the MIC [7] was greater than 64 µg/mL. The MIC [8] was greater than 64 µg/mL, the MIC [9, 21] was greater than 64 µg/mL and the MIC [10] was greater than 64 µg/mL. The IC50 ([12]; DNA polymerase III, S. aureus, read-out: IC50 semiquantitative scoring, S. aureus) was 1.73 to 1730 nM and the IC50 [13] was greater than 17300 nM.

With `CO[C@H]1C[C@H]2C=C[C@H]3[C@H]4O[C@]2(/C(C)=C/[C@@H](C)[C@@H]([C@@H](C)O)OC1=O)[C@@H]3[C@H](O)[C@@H](C)[C@H]4O` [Nodusmicin, reference compound] the MIC ([1]; ATCC13709, read-out: MIC Sa1) was greater than 64 µg/mL, the MIC ([2]; ATCC25923, read-out: MIC Sa26) was greater than 64 µg/mL and the MIC [2, 14] was greater than 64 µg/mL. The MIC [2, 15] was greater than 64 µg/mL, the MIC ([3]; NCTC6571, read-out: MIC Sa4) was greater than 64 µg/mL and the MIC [4] was greater than 64 µg/mL. It also gave an MIC [5] of 64 µg/mL (≈ 151 µM), an MIC [6] of 64 µg/mL (≈ 151 µM) and an MIC [7] of 32 µg/mL (≈ 75.7 µM). For the same compound, the MIC [8] was 64 µg/mL (≈ 151 µM), the MIC ([9]; ATCC25922, read-out: MIC Ec1) was greater than 64 µg/mL and the MIC [10] was 1 µg/mL (≈ 2.37 µM). For the same compound, the MIC [11] was 0.25 µg/mL (≈ 0.592 µM), the IC50 [12] was 2.37 to 2370 nM and the IC50 [13] was 2370 to 23700 nM.

`COC[C@@H]1[C@@H](O)[C@@H]2[C@H]3C=C[C@@H]4[C@@H](COC)C(=O)O[C@H]([C@H](O)COC)[C@H](C)/C=C(\C)[C@@]24O[C@H]3[C@@H]1OC(=O)c1ccc(C)[nH]1` [Compound 6, 8-O-5-Methyl-1H-pyrrole-2′-carbonylbranimycin] gave an MIC ([1]; ATCC13709, read-out: MIC Sa1) greater than 64 µg/mL, an MIC ([2]; ATCC25923, read-out: MIC Sa26) greater than 64 µg/mL and an MIC [2, 14] greater than 64 µg/mL. For the same compound, the MIC [2, 15] was greater than 64 µg/mL, the MIC ([3]; NCTC6571, read-out: MIC Sa4) was greater than 64 µg/mL and the MIC [4] was 64 µg/mL (≈ 109 µM). For the same compound, the MIC [5] was greater than 64 µg/mL, the MIC [6] was greater than 64 µg/mL and the MIC [7] was greater than 64 µg/mL. It also gave an MIC [8] greater than 64 µg/mL, an MIC ([9]; ATCC25922, read-out: MIC Ec1) greater than 64 µg/mL and an MIC [11] of 8 µg/mL (≈ 13.6 µM). For the same compound, the IC50 [12] was 1.7 to 1700 nM and the IC50 [13] was greater than 17000 nM.

`COC[C@@H]1[C@@H](O)[C@@H]2[C@H]3C=C[C@@H]4[C@@H](COC)C(=O)O[C@H]([C@H](O)COC)[C@H](C)/C=C(\C)[C@@]24O[C@H]3[C@@H]1OC(=O)c1cc(C)n[nH]1` [Compound 39, 8-O-5-Methyl-1H-Pyrazole-3′-carbonylbranimycin] gave an MIC [1, 16] greater than 64 µg/mL, an MIC [2, 17] greater than 64 µg/mL and an MIC [2, 18] greater than 64 µg/mL. For the same compound, the MIC [2, 19] was greater than 64 µg/mL, the MIC [3, 20] was greater than 64 µg/mL and the MIC [4] was greater than 64 µg/mL. For the same compound, the MIC [5] was greater than 64 µg/mL, the MIC [6] was greater than 64 µg/mL and the MIC [7] was greater than 64 µg/mL. For the same compound, the MIC [8] was greater than 64 µg/mL, the MIC [9, 21] was greater than 64 µg/mL and the MIC [10] was greater than 64 µg/mL. The MIC [11] was greater than 64 µg/mL and the IC50 [12] was 1690 to 16900 nM.
